Experimental data reported in US20250186437A1, “CARBOLINE COMPOUNDS AND USE THEREOF” (PTC Therapeutics, Inc., priority 2021, published 2025).

These molecules were tested on MOLM-13 cells (assay: MOLM-13 Cell Proliferation Assay (indicator of DHODH inhibition)). Settings: Homo sapiens, 72 Hours of culture, CellTiter-Glo, no uridine.
Type: cell-based
Method: The following assay was conducted to measure proliferation of MOLM-13 cells in the presence of each compound studied. This assay was included as an indicator of DHODH inhibition, as growth of MOLM-13 cells is known to depend on synthesis of pyrimidines using the de novo pathway, which can be blocked by inhibition of DHODH. • 1. MOLM-13 cells were cultured in RPMI 1640 medium+10% Fetal Bovine Serum (FBS). Only low passage cells (<20) were used for the compound tests • 2. On day 1, Log-phase growing Molm-13 Cells were counted and diluted to 10^5 cells/mL in RPMI 1640 medium+10% FBS • 3. 100 μL of diluted MOLM-13 cells in 96 well white plates were seeded, for a final density of 10^4 cells/well. • 4. 0.5 μL of pre-diluted 200× compounds or DMSO control was added to each well. The final DMSO concentration was 0.5%. • 5. After 72 Hours of culture at 37° C., 5% CO2, the plates were taken out and cooled to RT, then 50 μL CellTiter-Glo® (Promega) was added, and the composition was mixed at RT for 10 minutes. • 6. The plates were then read by ViewLux (Speed-fast, Gain-High, Bining-1X, 5 seconds).

Point of comparison: `Cc1cc(C)nc(N2CCc3c([nH]c4ccc(Cl)cc34)C2c2ccc(C)c(F)c2F)n1` (stereo not shown) [Compound 342, 6-chloro-1-(2,3-difluoro-4-methylphenyl)-2-(4,6-dimethylpyrimidin-2-yl)-2,3,4,9-tetrahydro-1H-pyrido[3,4-b]indole], IC50 1 nM. Against it:
- Fc1ccc(C2c3[nH]c4ccc(Cl)cc4c3CCN2c2ncc(F)cn2)cc1 (stereo not shown) [Compound 3, 6-chloro-1-(4-fluorophenyl)-2-(5-fluoropyrimidin-2-yl)-2,3,4,9-tetrahydro-1H-pyrido[3,4-b]indole] — 30-fold higher, 29.6 nM
- CSc1nc(N2CCc3c([nH]c4ccc(Cl)cc34)[C@@H]2c2ccc(C)c(F)c2F)nc(C(F)(F)F)n1 [Compound 389, (1S)-6-chloro-1-(2,3-difluoro-4-methylphenyl)-2-[4-(methylsulfanyl)-6-(trifluoromethyl)-1,3,5-triazin-2-yl]-2,3,4,9-tetrahydro-1H-pyrido[3,4-b]indole] — within 1.5-fold, 0.8 nM
- CC1(C)CN(c2ncc([C@H]3c4[nH]c5ccc(Cl)cc5c4CCN3c3nc(C(F)(F)F)cc(C(F)(F)F)n3)cn2)CCN1 [Compound 496, (1S)-2-[4,6-bis(trifluoromethyl)pyrimidin-2-yl]-6-chloro-1-[2-(3,3-dimethylpiperazin-1-yl)pyrimidin-5-yl]-2,3,4,9-tetrahydro-1H-pyrido[3,4-b]indole] — 2.8-fold higher, 2.8 nM
- COCCOc1ncc([C@H]2c3[nH]c4ccc(Cl)cc4c3CCN2c2nc(C(F)(F)F)nc(C(F)(F)F)n2)cn1 [Compound 534, (1S)-2-[4,6-bis(trifluoromethyl)-1,3,5-triazin-2-yl]-6-chloro-1-[2-(2-methoxyethoxy)pyrimidin-5-yl]-2,3,4,9-tetrahydro-1H-pyrido[3,4-b]indole] — within 1.5-fold, 0.8 nM
- Cc1ccc(C2c3[nH]c4ccc(Cl)c(F)c4c3CCN2c2ncc(F)c(C)n2)c(F)c1F (stereo not shown) [Compound 114, 6-chloro-1-(2,3-difluoro-4-methylphenyl)-5-fluoro-2-(5-fluoro-4-methylpyrimidin-2-yl)-2,3,4,9-tetrahydro-1H-pyrido[3,4-b]indole] — within 1.5-fold, 1.1 nM
- Cc1ccnc(N2CCc3c([nH]c4cc(F)c(Cl)cc34)C2c2cnc(N(C)C)nc2)n1 (stereo not shown) [Compound 94, 5-[6-chloro-7-fluoro-2-(4-methylpyrimidin-2-yl)-2,3,4,9-tetrahydro-1H-pyrido[3,4-b]indol-1-yl]-N,N-dimethylpyrimidin-2-amine] — 22-fold higher, 22.2 nM
- O=C(O)CCCNc1ncc([C@H]2c3[nH]c4ccc(Cl)cc4c3CCN2c2nc(C(F)(F)F)nc(C(F)(F)F)n2)cn1 [Compound 538, 4-[(5-{(1S)-2-[4,6-bis(trifluoromethyl)-1,3,5-triazin-2-yl]-6-chloro-2,3,4,9-tetrahydro-1H-pyrido[3,4-b]indol-1-yl}pyrimidin-2-yl)amino]butanoic acid] — 2.5-fold lower, 0.4 nM
- FC(F)(F)c1cnnc(N2CCc3c([nH]c4ccc(Cl)cc34)C2c2ccc(N3CCOCC3)nc2)n1 (stereo not shown) [Compound 429, 6-chloro-1-[6-(morpholin-4-yl)pyridin-3-yl]-2-[5-(trifluoromethyl)-1,2,4-triazin-3-yl]-2,3,4,9-tetrahydro-1H-pyrido[3,4-b]indole] — 1.6-fold higher, 1.6 nM
- N#Cc1ccnc(N2CCc3c([nH]c4cc(F)c(Cl)cc34)C2c2ccc(F)cc2)n1 (stereo not shown) [Compound 25, 2-[6-chloro-7-fluoro-1-(4-fluorophenyl)-1,3,4,9-tetrahydro-2H-pyrido[3,4-b]indol-2-yl]pyrimidine-4-carbonitrile] — 51-fold higher, 51.4 nM
- Cc1nc(C)nc(N2CCc3c([nH]c4ccc([N+](=O)[O-])cc34)C2c2cnc(N3CCOCC3)nc2)n1 (stereo not shown) [Compound 313, 2-(4,6-dimethyl-1,3,5-triazin-2-yl)-1-[2-(morpholin-4-yl)pyrimidin-5-yl]-6-nitro-2,3,4,9-tetrahydro-1H-pyrido[3,4-b]indole] — 18-fold higher, 18.1 nM
- Cc1ccc(C2c3[nH]c4ccc(Cl)c(F)c4c3CCN2c2nc(C)c(F)c(C)n2)c(F)c1F (stereo not shown) [Compound 118, 6-chloro-1-(2,3-difluoro-4-methylphenyl)-5-fluoro-2-(5-fluoro-4,6-dimethylpyrimidin-2-yl)-2,3,4,9-tetrahydro-1H-pyrido[3,4-b]indole] — the same, 1 nM
- Cc1nc(N2CCc3c([nH]c4ccc(Cl)c(F)c34)C2c2ccc(/C=C/CCO)cc2)nc(C)c1F (stereo not shown) [Compound 243, (3E)-4-{4-[6-chloro-5-fluoro-2-(5-fluoro-4,6-dimethylpyrimidin-2-yl)-2,3,4,9-tetrahydro-1H-pyrido[3,4-b]indol-1-yl]phenyl}but-3-en-1-ol] — within 1.5-fold, 1.1 nM
- Cc1ccc([C@@H]2c3[nH]c4ccc(Cl)cc4c3CCN2c2ncc(F)c(C)n2)c(F)c1F [Compound 187, (1R)-6-chloro-1-(2,3-difluoro-4-methylphenyl)-2-(5-fluoro-4-methylpyrimidin-2-yl)-2,3,4,9-tetrahydro-1H-pyrido[3,4-b]indole] — 20-fold higher, 20.3 nM
- Oc1c(F)cccc1C1c2[nH]c3ccc(Cl)cc3c2CCN1c1nccc(C(F)(F)F)n1 (stereo not shown) [Compound 252, 2-{6-chloro-2-[4-(trifluoromethyl)pyrimidin-2-yl]-2,3,4,9-tetrahydro-1H-pyrido[3,4-b]indol-1-yl}-6-fluorophenol] — 2-fold higher, 2 nM
- Cc1cc(C)nc(N2CCc3c([nH]c4ccc(Cl)c(F)c34)C2c2ccc(C)c(F)c2F)n1 (stereo not shown) [Compound 205, 6-chloro-1-(2,3-difluoro-4-methylphenyl)-2-(4,6-dimethylpyrimidin-2-yl)-5-fluoro-2,3,4,9-tetrahydro-1H-pyrido[3,4-b]indole] — within 1.5-fold, 0.7 nM
- N#Cc1ccc(C2c3[nH]c4cc(F)c(Cl)cc4c3CCN2c2nccc(Br)n2)cc1 (stereo not shown) [Compound 69, 4-[2-(4-bromopyrimidin-2-yl)-6-chloro-7-fluoro-2,3,4,9-tetrahydro-1H-pyrido[3,4-b]indol-1-yl]benzonitrile] — 11-fold higher, 10.6 nM
- Cc1cc(C)nc(N2CCc3c([nH]c4cc(F)c(Cl)cc34)C2c2ccc(C)c(F)c2F)n1 (stereo not shown) [Compound 132, 6-chloro-1-(2,3-difluoro-4-methylphenyl)-2-(4,6-dimethylpyrimidin-2-yl)-7-fluoro-2,3,4,9-tetrahydro-1H-pyrido[3,4-b]indole] — 2.1-fold higher, 2.1 nM
- Fc1cccc(C2c3[nH]c4ccc(Cl)cc4c3CCN2c2nccc(C(F)(F)F)n2)c1 (stereo not shown) [Compound 371, 6-chloro-1-(3-fluorophenyl)-2-[4-(trifluoromethyl)pyrimidin-2-yl]-2,3,4,9-tetrahydro-1H-pyrido[3,4-b]indole] — 8.8-fold higher, 8.8 nM
- FC(F)(F)c1ccnc(N2CCc3c([nH]c4ccc(Cl)cc34)[C@@H]2c2ccc(N3CCOCC3)nc2)n1 [Compound 473, (1S)-6-chloro-1-[6-(morpholin-4-yl)pyridin-3-yl]-2-[4-(trifluoromethyl)pyrimidin-2-yl]-2,3,4,9-tetrahydro-1H-pyrido[3,4-b]indole] — the same, 1 nM
- Cc1cc(C)nc(N2CCc3c([nH]c4cc(F)c(Cl)cc34)C2c2ccc(F)cc2)n1 (stereo not shown) [Compound 19, 6-chloro-2-(4,6-dimethylpyrimidin-2-yl)-7-fluoro-1-(4-fluorophenyl)-2,3,4,9-tetrahydro-1H-pyrido[3,4-b]indole] — 26-fold higher, 26.3 nM
- Fc1c(Cl)ccc2[nH]c3c(c12)CCN(c1nccc(C(F)(F)F)n1)C3c1cnc(-n2cncn2)nc1 (stereo not shown) [Compound 230, 6-chloro-5-fluoro-1-[2-(1H-1,2,4-triazol-1-yl)pyrimidin-5-yl]-2-[4-(trifluoromethyl)pyrimidin-2-yl]-2,3,4,9-tetrahydro-1H-pyrido[3,4-b]indole] — 8.3-fold higher, 8.3 nM
- N#Cc1ccnc(N2CCc3c([nH]c4ccc(Cl)c(F)c34)C2c2ccc(/C=C/CCO)cc2)n1 (stereo not shown) [Compound 236, 2-(6-chloro-5-fluoro-1-{4-[(1E)-4-hydroxybut-1-en-1-yl]phenyl}-1,3,4,9-tetrahydro-2H-pyrido[3,4-b]indol-2-yl)pyrimidine-4-carbonitrile] — 1.8-fold higher, 1.8 nM
- CN(C)c1ncc(C2c3[nH]c4ccc(Cl)c(F)c4c3CCN2c2ncc(F)cn2)cn1 (stereo not shown) [Compound 201, 5-[6-chloro-5-fluoro-2-(5-fluoropyrimidin-2-yl)-2,3,4,9-tetrahydro-1H-pyrido[3,4-b]indol-1-yl]-N,N-dimethylpyrimidin-2-amine] — 7.9-fold higher, 7.9 nM
- CN1CCN(c2ccc([C@H]3c4[nH]c5ccc(Cl)cc5c4CCN3c3ncnc(C(F)(F)F)n3)cn2)CC1 [Compound 491, (1S)-6-chloro-1-[6-(4-methylpiperazin-1-yl)pyridin-3-yl]-2-[4-(trifluoromethyl)-1,3,5-triazin-2-yl]-2,3,4,9-tetrahydro-1H-pyrido[3,4-b]indole] — 2.2-fold higher, 2.2 nM
- COc1ccc(C2c3[nH]c4ccc(Cl)cc4c3CCN2c2nccc(C(F)(F)F)n2)c(F)c1F (stereo not shown) [Compound 120, 6-chloro-1-(2,3-difluoro-4-methoxyphenyl)-2-[4-(trifluoromethyl)pyrimidin-2-yl]-2,3,4,9-tetrahydro-1H-pyrido[3,4-b]indole] — 3.7-fold higher, 3.7 nM
- Cc1cnc(N2CCc3c([nH]c4ccc(Cl)c(F)c34)C2c2ccc(C)c(F)c2F)nc1 (stereo not shown) [Compound 137, 6-chloro-1-(2,3-difluoro-4-methylphenyl)-5-fluoro-2-(5-methylpyrimidin-2-yl)-2,3,4,9-tetrahydro-1H-pyrido[3,4-b]indole] — 2.4-fold higher, 2.4 nM
- Cc1ccc(C2c3[nH]c4ccc(Cl)c(F)c4c3CCN2c2ncc(F)cn2)cc1 (stereo not shown) [Compound 20, 6-chloro-5-fluoro-2-(5-fluoropyrimidin-2-yl)-1-(4-methylphenyl)-2,3,4,9-tetrahydro-1H-pyrido[3,4-b]indole] — 13-fold higher, 12.9 nM
